Measured values as given in patent publication US20240358734A1, “DISCOVERY OF NOVEL TRPV1 CHANNEL BLOCKERS BY HIGH-THROUGHPUT SCREENING OF MARINE NATURAL PRODUCTS” (The Hong Kong University of Science and Technology, priority 2023, published 2024).
Entries after “also recorded” stand apart in the source; their conditions may differ.

Legend:
human TRPV1 = target: T1, human TRPV1 (Homo sapiens, UniProt Q8NER1); assay: High-throughput FM4-64 dye-uptake assay in HEK293 cells transfected with hTRPV1-pIRES-eGFP; type: cell-based; details: for inhibitory effect on TRPV1 (relative n2/n1 ratio compared to vehicle control): screening, 5 μM FM4-64 dye and 100 μg/ml test compounds for 3 minutes, vs DMSO; for mean n2/n1 ratio: HEK293 cells transfected with human TRPV1, 96-well plate, groups incubated with drug, compared to capsaicin alone; for IC50: 1 μM capsaicin, 5 μM FM4-64, 3-minute incubation, cell-based system
T1 construct: expressed in transfected cells; host or cells: HEK293 (HEK293T) cells
Description: To screen potential modulators of TRPV1, a high-throughput screening system based on FM4-64 dye uptake was established using HEK293 cells transfected with hTRPV1-pIRES-eGFP and cultured in 96-well plates. The cells are incubation with 5 μM FM4-64 dye and 100 μg/ml test compounds for 3 minutes, washed, imaged using Zeiss Celldiscoverer 7, and analyzed using Image J (FIG. 2A). The number of GFP positive cells which is an indicator of the number of TRPV1 expressed cells, is calculated as n1 and the number of cells which are both GFP positive and dye uptake positive is calculated as n2 (FIG. 2B). The ratio (n2/n1) is a functional indicator of TRPV1 channel activity.
The performance of cC and cF with capsaicin and capsazepine, with HEK293 cells transfected with human TRPV1 and cultured on a 96-well plate are compared by the n2/n1 ratio of the groups incubated with cC and cF to those incubated with capsaicin alone and capsazepine (FIG. 3B).
The assay involves mixing 1 μM of capsaicin with varying concentrations of cC and 5 μM of FM4-64, and the mixture is added to each well for a 3-minute incubation.
Transfected HEK293 cells in a 96-well plate were divided into 8 groups, each containing 12 wells. 10-11 wells of each group were set as experimental groups in which cells were incubated with compound mixtures. 1-2 wells of each group were set as control groups in which cells were incubated with control solution A or B. One group was operated simultaneously to reduce the difference between wells. Cells in DMEM were washed with CaCl2-HBSS buffer once to remove the remnant medium. Subsequently, cells were incubated with the compound mixture or control solution for 2-3 min at RT. After FM4-64 incubation, cells were washed with CaCl2-HBSS buffer thrice to remove FM4-64 residuals. A group of cells was subjected to Zeiss Celldiscoverer 7 for fluorescent imaging.
To separate GFP and FM4-64 fluorescent dye, we used an LED light source at 470 nm to excite the GFP channel and light at 567 nm to excite the FM4-64 channel. 5× objective (Plan Apo, dry, autocorrect, NA 0.35), Orca camera (Orca Flash 4.0 v3), CO2 Module S1 incubation system, and Zenblue software were used for image recording. Each image comprises a GFP channel, FM4-64 channel, and bright field channel. And 4 non-overlapping images were taken for each well using the Tile function at Zenblue.
All images were analysed with ImageJ software. The same threshold would be applied to all the images in the same experiment group to select GFP-positive and dye uptake-positive cells. Cell number was calculated by the “Analyze particle” function in ImageJ. GFP-positive and dye uptake-positive cells were selected using the “AND” function in the image calculator. The number of GFP-positive cells (TRPV1 expressed cells) would be calculated as N1, and the number of cells that are both GFP positive and dye uptake positive would be calculated as N2. The ratio of […] represents the percentage of TRPV1 expressed cells that uptake FM4-64 fluorescent dye and would be used to analyse TRPV1's function.

[1] = tested on: capsaicin-/TRPV1-induced pain sensation; assay: Capsaicin-induced pain-sensation assay (paw-licking) in mice; type: in vivo, mice (C57B/6J); details: for mean licking time: drug mixed with capsaicin injected into right hind paw, 5 minutes observation
Description: The total time spent paw-licking, a typical nociception behaviour in mice, was recorded as an indicator of TRPV1 activation and compared with a positive control group injected with capsaicin alone. The potency of the injected drugs is related to the reduction of licking time.
The mice used were 4-6 weeks old C57B/6J provided by APCF in HKUST. All animal procedures were approved by the University Committee on Research Practices of the Hong Kong University of Science and Technology (Ethics protocol number: 2016074).
Capsaicin-induced pain-sensation assays in mice were performed where 10 μL of capsaicin (300 μM) or solvent control was injected into the top of the hind paw by using a fine (30-G) needle; capsaicin was dissolved in 0.3% ethanol and 3% (v/v) dimethyl sulfoxide (DMSO). The mice were wrapped gently in the investigator's hand and maintained on their back, with their snout pointing toward the small finger of the investigator; in this position, the mice remained unagitated during the injection. Mouse behavior was recorded using a digital camera (GoPro5).
The observation cage was made with the transparent large cage liner from APCF with bedding and food at the bottom. Mice were placed in the observation cage for 10 minutes at least 1 hour before the experiment was conducted to reduce the stress bought on by an unfamiliar environment. During the experiment, mice were captured by the left hand using the index finger and thumb to hold their neck. Then gradually pick up the mice and use the little finger to anchor its tail, such that its right hind paw will step on the ring finger or middle finger. Drugs were prepared in a 1.5 mL test tube. For the control group, 1 mM stock Capsaicin in DMSO is diluted to 100 μM using PBS. For the testing group, drugs originally dissolved in DMSO were diluted to the desired concentration in addition to capsaicin.
The injection was performed by shaking and spinning the drug-containing test tube for an even concentration of drug. A BD Ultra-fine 6 mm needle was used to suck out the 10 μL of drug from the needle. After removing excess air bubbles, 10 μL of the drug was injected into the captured mice's back of the right hind paw. The needle was removed slowly to inhibit blood and drug from leaking from the wound. After injection, mice were placed in the observation cage for 5 minutes to record the pain behavior. Video was filmed using a camera with the configuration of HD 30 fps. The environmental noise, light, and temperature are constant throughout the record. The mice's behavior was identified by experienced individuals who mapped pain behavior in seconds throughout the 5 minutes.

TRPV1 channel (hTRPV1) = target: T2, TRPV1 channel (hTRPV1) (Homo sapiens, UniProt Q8NER1); assay: Excised inside-out patch-clamp of 3T3 cells transfected with hTRPV1-IRES-EGFP; type: cell-based; details: for inhibition of TRPV1 channels in patch-clamp macroscopic current: 10 nM capsaicin activation followed by 20 μM drug
T2 construct: expressed in transfected cells; host or cells: 3T3 cells
Excerpt: A cell-based high-throughput drug screening method identifies potential TRPV1 inhibitors using the FM4-64 dye-uptake assay though the assay cannot conclusively distinguish the specific mechanism of blockage as numerous factors, such as other channels, pinocytosis, and drug-induced membrane potential alteration via pore-forming, can contribute to changes in FM4-64 dye uptake. A high-resolution patch clamp assays using an excised inside-out recording configuration allows investigation of the potential inhibitory effect of cC and cF on TRPV1, where changes in the patch-clamp macroscopic current before and after drug application indicates drug effectiveness.
3T3 cells were recorded using excised inside-out voltage clamp. Patch electrodes with a resistance of 4 MΩ±1.1 MΩ were pulled on a glass pipette puller (DMZ Zeitz-Puller). 3T3 cells were first transferred to a patch container to minimize the use of drugs and transfected with hTRPV1-IRES-EGFP. Immediately before assay, the cell medium was changed to PBS as well as the pipette medium. The dish was connected to the ground electrode via the salt bridge. Glass pipette filled with PBS was inserted into the patch electrode. A positive pressure of around 40 mmHg was applied to the pipette and soaked into the cell medium. The offset was tuned to near 0 pA when the holding potential was 0 mV. Pipette was moved to the cell, showing green-fluorescent and barely attached to the cell membrane. Then, removing the positive pressure in the pipette and changing the holding potential to −80 mV, forming a tight seal between the cell membrane and the pipette. The seal resistance should be >=1GQ. The sealed membrane was excised to form a patch in an inside-out configuration. The recording started with a positive holding potential.
The patch was activated by 10 nM of capsaicin to activate TRPV1 channels fully. After full activation, 20 μM of drugs (cC) was applied to test for their ability of TRPV1 inhibition. […]
Traces were collected with the pClamp10 software suite, and the patch-clamp macroscopic current was recorded. […]

T2 sequence (Q8NER1 whole entry): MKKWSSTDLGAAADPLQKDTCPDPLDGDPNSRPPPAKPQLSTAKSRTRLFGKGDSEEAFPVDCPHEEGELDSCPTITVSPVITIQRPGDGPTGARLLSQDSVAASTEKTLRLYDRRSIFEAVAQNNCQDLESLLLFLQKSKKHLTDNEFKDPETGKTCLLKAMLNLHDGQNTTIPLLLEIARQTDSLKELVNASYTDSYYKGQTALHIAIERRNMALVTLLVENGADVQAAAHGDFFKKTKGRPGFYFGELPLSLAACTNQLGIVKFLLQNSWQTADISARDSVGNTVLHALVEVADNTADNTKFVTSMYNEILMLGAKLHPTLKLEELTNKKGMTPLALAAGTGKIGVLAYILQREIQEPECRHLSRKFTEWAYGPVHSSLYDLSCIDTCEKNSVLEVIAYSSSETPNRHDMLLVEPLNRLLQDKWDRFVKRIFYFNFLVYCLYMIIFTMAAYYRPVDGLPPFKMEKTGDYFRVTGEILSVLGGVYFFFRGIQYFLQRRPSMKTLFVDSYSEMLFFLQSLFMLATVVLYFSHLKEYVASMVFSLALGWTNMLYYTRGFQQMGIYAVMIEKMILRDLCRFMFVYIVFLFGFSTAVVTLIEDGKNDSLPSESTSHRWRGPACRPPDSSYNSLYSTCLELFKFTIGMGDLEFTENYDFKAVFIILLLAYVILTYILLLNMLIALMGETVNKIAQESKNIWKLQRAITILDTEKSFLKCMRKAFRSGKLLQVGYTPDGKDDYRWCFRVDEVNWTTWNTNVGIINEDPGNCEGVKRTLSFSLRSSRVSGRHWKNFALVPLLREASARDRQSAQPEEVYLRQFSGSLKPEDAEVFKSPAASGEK
T1 sequence (Q8NER1 whole entry): as above

Compound | inhibitory effect on TRPV1 (relative n2/n1 ratio compared to vehicle control) (human TRPV1) | mean n2/n1 ratio (human TRPV1) | mean licking time [1] | IC50 (human TRPV1) | inhibition of TRPV1 channels in patch-clamp macroscopic current (TRPV1 channel (hTRPV1)) | also measured
COc1cc(CNC(=O)CCCC/C=C/C(C)C)ccc1O [capsaicin, reference compound] |  |  |  |  |  | mean n2/n1 ratio, capsaicin group (human TRPV1; capsaicin alone, HEK293 cells transfected with human TRPV1): 0.254; mean licking time, capsaicin alone group ([1]; capsaicin alone injected into right hind paw (positive control)): over 50 seconds
CC(=O)Cc1cc2c(c(O)c1C(=O)O)-c1c(c(O)c3oc4c(O[C@@H]5OC(C(=O)O)=C[C@H](O)[C@H]5O)cccc4c(=O)c3c1O)CC2 [cA, chrexanthomycin A] | inhibitory effects on TRPV1 |  |  |  |  | 
Oc1cc2c(cc1O)CN(C(=S)NCCc1ccc(Cl)cc1)CCC2 [capsazepine, reference compound] |  | 0.0667 | 18 s |  |  | 
C[C@@]1(O)Cc2cc3c(c(O)c2C(=O)O1)-c1c(c(O)c(O)c2c(=O)c4cccc(O[C@@H]5OC(C(=O)O)=C[C@H](O)[C@H]5O)c4oc12)CC3 [cF, chrexanthomycin F] | inhibitory effects on TRPV1 | 0.068 |  | > 2000 nM | effectively inhibit TRPV1 channels | 
chrexanthomycin C [cC] | inhibitory effects on TRPV1; also recorded: lowest relative n2/n1 ratio | 0.0307 | 19 s | 750 to 1000 nM | effectively inhibit TRPV1 channels | average relative macroscopic current after drug addition (TRPV1 channel (hTRPV1); fully capsaicin-activated state (10 nM capsaicin), 20 μM drug, inside-out patch): 0.285; efficacy in blocking capsaicin-induced pain sensation relative to capsazepine ([1]; mouse model, ANOVA with post hoc test): as effective as capsazepine
COc1c2c(c(O)c3c(=O)c4cccc(O[C@@H]5OC(C(=O)O)=C[C@H](O)[C@H]5O)c4oc13)-c1c(cc(CC(C)=O)c(C(=O)O)c1O)CC2 [cB, chrexanthomycin B] | inhibitory effects on TRPV1 |  |  |  |  | 
